Test results as given in patent US20230173089A1, “Q-ER PEPTIDE” (Biotempt B.V., priority 2019, published 2023).

Experiments:
[1] = test system: mTOR; conditions: cited from earlier work; for activity as activators of mTOR or inhibitors of autophagy compared with other amino acids: alone or in combination
[2] = test system: Human monocytes; assay: monocyte chemotaxis in 48-well microchemotaxis chamber; type: cell-based; conditions: for chemotactic activity at a stated concentration: 0.1 mmol/L; for induction of monocyte chemotaxis: 10-9 to 10-5 mol/L; for peptide derived chemotactic activity under competition with VGVAPG: competition with SEQ ID NO:19; for monocyte chemotaxis in the presence of glucose, fructose, or mannose: control sugars; for monocyte chemotaxis in the presence of lactose: lactose dissociates the 67-kD ERC; for chemotactic response to f-MLF after preincubation of monocytic cells with peptide: preincubation 30 minutes; for chemotactic potency compared with f-MLF: same concentration of f-MLF
Procedure: Human monocytes are isolated from freshly drawn blood of healthy volunteers using serial […] gradient centrifugation, as described elsewhere. Cells are cultured for 16 hours in RPMI-1640 media supplemented with 0.5% human serum to become quiescent after isolation. Purity of the cells is >95% as determined by flow cytometry analysis. Monocyte chemotaxis is assayed in a 48-well microchemotaxis chamber (Neuroprobe, Gaithersburg, MD) in serum-free media. Wells in the upper and lower chamber are separated by a polyvinylpyrrolidone-free polycarbonate membrane (pore size 5 µm; Costar). Freshly isolated monocytes at a density of 5 × 10^5/mL are incubated for 2.5 hours with recombinant C-peptide (Sigma), before migrated cells on the bottom face of the filter are stained and counted under the light microscope. Maximal chemotactic activity is measured with […] N -formyl-methionyl-leucyl-phenylalanine (f-MLF; Sigma Chemical Co), and checkerboard analysis is used to distinguish chemotaxis from chemokinesis.
Chemotaxis is tested with SEQ ID NO:12 ([…]), SEQ ID NO:11 ([…]), SEQ ID NO:24 ([…]) or SEQ ID NO:25 ([…]). Exposure of cells to lactose is used to specifically dissociate the 67-kD ERC. Controls for lactose included glucose, fructose, and mannose, none of which affect the 67-kD ERC. In each case, monocytes cells are exposed to the relevant concentrations of SEQ ID NO:12 ([…]), SEQ ID NO:11 ([…]), SEQ ID NO:24 ([…]) or SEQ ID NO:25 ([…]) (10-9 to 10-5 mol/L), for 30 minutes before the chemotaxis assays are started. […] Monocytes in the upper wells of the assay chamber are exposed to varying concentrations of SEQ ID NO:12 ([…]), SEQ ID NO:11 ([…]), SEQ ID NO:24 ([…]) or SEQ ID NO:25 ([…]) for 30 minutes before stimulation by SEQ ID NO:19 (VGVAPG) (0.1 nmol/L - 10 nmol/L) in the lower wells. […] SEQ ID NO:12 ([…]), SEQ ID NO:11 ([…]), SEQ ID NO:24 ([…]), or SEQ ID NO:25 ([…]) derived chemotactic activity is eliminated by competition with Val-Gly-Val-[…]-Pro-Gly (SEQ ID NO:19 (VGVAPG)), a repetitive peptide found in human elastin that binds to cellular elastin receptors. Monocyte chemotaxis in response to both SEQ ID NO:19 (VGVAPG) or SEQ ID NO:12 ([…]), SEQ ID NO:11 ([…]), SEQ ID NO:24 ([…]), or SEQ ID NO:25 ([…]) is abolished in the presence of lactose, a galactosugar that specifically dissociates the 67-kD ERC, but it is unaffected by glucose, fructose, or mannose.

[3] = test system: Wistar rats with hemorrhagic shock; assay: hemorrhagic shock and resuscitation in rats (Example 15, SIRS); type: in vivo, rat; conditions: single injection 30 minutes after induction of hemorrhagic shock
Procedure: Severe hemorrhagic shock followed by resuscitation induces a massive inflammatory response, which may culminate into systemic inflammatory response syndrome, multiple organ dysfunction syndrome and finally death. Treatments that effectively prevent this inflammation are limited so far. […] Considering this powerful anti-inflammatory effect, it was investigated whether administration of 0.5 ml i.p. of synthetic heptapeptide SEQ ID NO:5 (AQGVAPG), SEQ ID NO:6 (LQGVAPG), SEQ ID NO:7 (AQGVLPG), SEQ ID NO:8 (LQGVLPG), dissolved in 0.9% NaCl at a concentration of 25 mg/ml, or vehicle (0.9% NaCl), respectively, during the SIRS-phase of hemorrhagic shock, is able to attenuate the inflammatory response associated with this condition.
Hemorrhagic shock is induced in groups of 6 rats for 60 minutes by blood withdrawal until a mean arterial pressure of 40 mmHg is reached. Thirty minutes after induction of hemorrhagic shock, rats received a single injection with one of synthetic heptapeptide SEQ ID NO:5 (AQGVAPG), SEQ ID NO:6 (LQGVAPG), SEQ ID NO:7 (AQGVLPG), SEQ ID NO:8 (LQGVLPG), or 0.9% NaCl solution, as control. Treatment with synthetic heptapeptide SEQ ID NO:5 (AQGVAPG), SEQ ID NO:6 (LQGVAPG), SEQ ID NO:7 (AQGVLPG), SEQ ID NO:8 (LQGVLPG) prevents systemic release of TNF-α and IL-6 and is associated with reduced TNF-α, IL-6 and E-selectin mRNA transcript levels in the liver, with reduced neutrophil infiltration into the liver and is associated with reduced liver damage.
Animals. Adult male specific pathogen-free Wistar rats weighing 350-400 g are used. Rats are housed under barrier conditions at 25° C. with a twelve-hour light/dark cycle, and are allowed food and water ad libitum. The experimental protocol adheres to the rules laid down in national law that serves the implementation of “Guidelines on the protection of experimental animals” by the Council of Europe (1986), Directive 86/609/EC. hCG-related synthetic oligopeptides. Rats are food deprived overnight before the start of the experiment, but are allowed water ad libitum. Rats are anesthetized using a mixture of N2 O/O2 /isoflurane (Pharmachemie B.V., Haarlem, The Netherlands). Body temperature is continuously maintained at 37.5° C. by placing the rats on a thermo controlled “half-pipe” (UNO, Rotterdam, The Netherlands). Endotracheal intubation is performed, and rats are ventilated at 60 breaths per minute with a mixture of N2 O/O2 /isoflurane. Polyethylene tubes (PE-50, Becton Dickinson; St. Michielsgestel, The Netherlands) are flushed with heparin and placed via the right carotid artery in the aorta and in the right internal jugular vein. A 5 cm midline laparotomy is performed and a supra pubic catheter is inserted to monitor urine production. Hemorrhagic shock is induced by blood withdrawal, reducing the circulating blood volume until a mean arterial pressure (MAP) of 40 mmHg is reached. This level of hypotension is maintained for 60 minutes. Thirty minutes after the induction of hemorrhagic shock, rats received a single intravenous (IV) bolus injection of heptapeptide solution or vehicle. Sixty minutes after induction of hemorrhagic shock, rats are resuscitated by four times their shed blood volume over a period of 30 minutes to normalize the MAP, and monitored for another 120 minutes after which they are sacrificed. The rats receive no heparin before or during the experiment. Sham animals are subjected to the same surgical procedure as the hemorrhagic shock animals, but without blood withdrawal and administration of heptapeptide.

[4] = test system: non-obese diabetic (NOD) mouse; assay: type 1 diabetes development in NOD mice; type: in vivo; conditions: 250 µg i.p. three times per week, female NOD mice from 14 weeks, max five weeks
Excerpt: The non-obese diabetic (NOD) mouse spontaneously develops type 1 diabetes (T1D) and has served as a model for understanding the genetic and immunological basis, and treatment, of T1D. NOD mice are used in these studies. Most diabetic NOD mice suffer from insulin deficiency diabetes, with the underlying cause of the pancreatic beta-cell loss or destruction most likely a result of an inflammatory process in the micro-vasculature surrounding endocrine beta-cell tissues and genetically accelerated autoimmunity is suspected. Diabetes is assessed by measurement of the venous blood glucose level using an Abbott Medisense Precision glucometer. Mice are considered diabetic after two consecutive glucose measurements ≥11 mmol/l (200 mg/dl). Onset of diabetes is dated from the first consecutive reading of ≥11 mmol/l. In vivo treatment: groups of 14 weeks-old female NOD mice (n=12 per group) are treated with synthetic peptide SEQ ID NO:5 (AQGVAPG), SEQ ID NO:6 (LQGVAPG), SEQ ID NO:7 (AQGVLPG), SEQ ID NO:8 (LQGVLPG) or vehicle (PBS), respectively. Treatment is done by injecting 250 µg peptide diluted in PBS three times per week intraperitoneally (i.p.). Control mice are treated with PBS only. The treatment is discontinued when all PBS treated NOD mice in the experiment have developed diabetes. This is generally at the age of 19 weeks. The peptide and PBS treatments are done for a maximum of five weeks. In instances of hyperglycaemia of ≥20 mmol/l the mice are killed to avoid prolonged discomfort. The remainder mice are kept alive up to the age of 35 weeks without any further treatment.

N[C@@H](CCC(=O)O)C(=O)O [L-Glutamic Acid]
activity as activators of mTOR or inhibitors of autophagy compared with other amino acids [1]: no or opposite effects

NCC(=O)O [L-Glycine]
activity as activators of mTOR or inhibitors of autophagy compared with other amino acids [1]: more potent | amino-acid-stimulated mTOR complex 1 activation [1]: improves

LQGVLPGQ (Immunomodulatory peptide) [SEQ ID NO:12]
chemotactic activity at a stated concentration [2]: good activity | induction of monocyte chemotaxis [2]: induce chemotaxis in a concentration-dependent manner | peptide derived chemotactic activity under competition with VGVAPG [2]: eliminated | monocyte chemotaxis in the presence of glucose, fructose, or mannose [2]: unaffected | monocyte chemotaxis in the presence of lactose [2]: abolished | chemotactic response to f-MLF after preincubation of monocytic cells with peptide [2]: does not alter | chemotactic potency compared with f-MLF [2]: considerably more potent

N[C@@H](Cc1ccc(O)cc1)C(=O)O [L-Tyrosine]
activity as activators of mTOR or inhibitors of autophagy compared with other amino acids [1]: no or opposite effects

AQGVLPG (Immunomodulatory peptide) [SEQ ID NO:7]
TNF-α, IL-6 and E-selectin mRNA transcript levels in the liver [3]: reduced | liver damage [3]: reduced | neutrophil infiltration into the liver [3]: reduced | systemic release of TNF-α and IL-6 [3]: prevents | beta-cell failure with diabetes development (occurrence of diabetes after the age of 17 weeks) [4]: significantly reduces

NCCCC[C@H](N)C(=O)O [L-Lysine]
activity as activators of mTOR or inhibitors of autophagy compared with other amino acids [1]: no or opposite effects

CC(C)[C@H](N)C(=O)O [L-Valine]
activity as activators of mTOR or inhibitors of autophagy compared with other amino acids [1]: more potent

VGVAPG (Immunomodulatory peptide) [SEQ ID NO:19, reference compound]
monocyte migration ([2]; 0.1 nmol/L - 10 nmol/L in the lower wells): concentration-dependent increase | monocyte chemotaxis in the presence of glucose, fructose, or mannose [2]: unaffected | monocyte chemotaxis in the presence of lactose [2]: abolished

LQGVQPGQ (Immunomodulatory peptide) [SEQ ID NO:24]
chemotactic activity at a stated concentration [2]: good activity | induction of monocyte chemotaxis [2]: induce chemotaxis in a concentration-dependent manner | peptide derived chemotactic activity under competition with VGVAPG [2]: eliminated | monocyte chemotaxis in the presence of glucose, fructose, or mannose [2]: unaffected | monocyte chemotaxis in the presence of lactose [2]: abolished | chemotactic response to f-MLF after preincubation of monocytic cells with peptide [2]: does not alter | chemotactic potency compared with f-MLF [2]: considerably more potent

N=C(N)NCCC[C@H](N)C(=O)O [L-Arginine]
activity as activators of mTOR or inhibitors of autophagy compared with other amino acids [1]: more potent

CSCC[C@H](N)C(=O)O [L-Methionine]
activity as activators of mTOR or inhibitors of autophagy compared with other amino acids [1]: no or opposite effects

C[C@@H](O)[C@H](N)C(=O)O [L-Threonine]
activity as activators of mTOR or inhibitors of autophagy compared with other amino acids [1]: no or opposite effects

N[C@@H](CO)C(=O)O [L-Serine]
activity as activators of mTOR or inhibitors of autophagy compared with other amino acids [1]: no or opposite effects

AQGVLPGQ (Immunomodulatory peptide) [SEQ ID NO:11]
chemotactic activity at a stated concentration [2]: good activity | induction of monocyte chemotaxis [2]: induce chemotaxis in a concentration-dependent manner | peptide derived chemotactic activity under competition with VGVAPG [2]: eliminated | monocyte chemotaxis in the presence of glucose, fructose, or mannose [2]: unaffected | monocyte chemotaxis in the presence of lactose [2]: abolished | chemotactic response to f-MLF after preincubation of monocytic cells with peptide [2]: does not alter | chemotactic potency compared with f-MLF [2]: considerably more potent

AQGVQPGQ (Immunomodulatory peptide) [SEQ ID NO:25]
chemotactic activity at a stated concentration [2]: good activity | induction of monocyte chemotaxis [2]: induce chemotaxis in a concentration-dependent manner | peptide derived chemotactic activity under competition with VGVAPG [2]: eliminated | monocyte chemotaxis in the presence of glucose, fructose, or mannose [2]: unaffected | monocyte chemotaxis in the presence of lactose [2]: abolished | chemotactic response to f-MLF after preincubation of monocytic cells with peptide [2]: does not alter | chemotactic potency compared with f-MLF [2]: considerably more potent

C[C@H](N)C(=O)O [L-Alanine]
activity as activators of mTOR or inhibitors of autophagy compared with other amino acids [1]: more potent | mTOR associated autophagic inhibitory effects on human cells [1]: most prominent

O=C(O)[C@@H]1CCCN1 [L-Proline]
activity as activators of mTOR or inhibitors of autophagy compared with other amino acids [1]: more potent | mTOR associated autophagic inhibitory effects on human cells [1]: most prominent

CC[C@H](C)[C@H](N)C(=O)O [L-Isoleucine]
activity as activators of mTOR or inhibitors of autophagy compared with other amino acids [1]: more potent

CC(C)C[C@H](N)C(=O)O [L-Leucine]
activity as activators of mTOR or inhibitors of autophagy compared with other amino acids [1]: more potent | mTOR associated autophagic inhibitory effects on human cells [1]: most prominent

N[C@@H](Cc1ccccc1)C(=O)O [L-Phenylalanine]
activity as activators of mTOR or inhibitors of autophagy compared with other amino acids [1]: no or opposite effects
